Experimental data taken from patent publication US5358947A, “Angiotensin II receptor blocking 2,3-substituted pyrazolo[1,5-a]-1,3,5-triazin-4(3H)-ones” (American Cyanamid Company, priority 1993, dated 1994).
Where a name gives a salt, the structure may show the parent alone.

Biological target: T1, Angiotensin II Receptor (Bos taurus, UniProt P25104)
T1 construct: The brownish tissue forming the adrenal cortex is scraped off and finely minced with scissors before homogenization; tissue local slaughter house (Maxwell-Cohen); host or cells: beef adrenal cortex, microsomal membranes (100,000×g pellet)
T1 sequence (P25104 1-359): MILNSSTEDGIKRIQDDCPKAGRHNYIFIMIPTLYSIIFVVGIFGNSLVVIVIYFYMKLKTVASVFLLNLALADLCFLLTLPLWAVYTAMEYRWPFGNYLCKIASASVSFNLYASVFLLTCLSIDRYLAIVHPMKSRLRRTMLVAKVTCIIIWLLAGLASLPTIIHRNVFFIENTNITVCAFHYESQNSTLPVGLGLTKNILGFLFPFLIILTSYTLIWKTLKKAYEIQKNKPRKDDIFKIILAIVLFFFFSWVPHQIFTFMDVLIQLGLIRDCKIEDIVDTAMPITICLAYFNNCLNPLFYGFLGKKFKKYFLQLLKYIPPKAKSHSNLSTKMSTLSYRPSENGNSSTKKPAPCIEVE
Test: Angiotensin II receptor binding assay ([125I](Sar1,Ile8)AngII displacement, beef adrenal cortex membranes)
Details: 60 minutes, room temperature
Text: Beef adrenals are obtained from a local slaughter house (Maxwell-Cohen). [^125 I](Sar^1,Ile^8)AngII, S.A. 2200 Ci/mmole, is purchased from Dupont (NEN®, Boston, Mass.). all unlabeled AngII analogs, Dimethylsulfoxide (DMSO), nucleotides, bovine serum albumin (BSA) are purchased from Sigma Chemical Co , St Louis, Mo. U.S.A.
Approximately sixteen (16) to twenty (20) beef adrenal glands are processed as follows: fresh adrenal glands received on crushed ice are cleaned of fatty tissues and the tough membranes encapsulating the glands are removed and discarded. The brownish tissue forming the adrenal cortex is scraped off and finely minced with scissors before homogenization. Care is taken to avoid contamination with medullary tissue during dissection. The scraped cortices are suspended in twenty volumes of an ice-cold buffer medium consisting of 10 mM Tris.HCl (pH 7.4 at 22° C.) and containing 1.0 mM EDTA and 0.2M sucrose. Unless otherwise indicated, all subsequent operations are done at 4° C. The tissue is homogenized in a glass homogenizer with a motor driven teflon pestle with a clearance of 1.0 mm. The homogenate is centrifuged first at low speed (3,000×g) for 10 minutes. The resulting pellet is discarded and the supernatant fluid recentrifuged at 10,000×g of 15 minutes to give a P2 pellet. This P2 pellet is discarded and the liquid phase is carefully decanted off in clean centrifuge tubes and recentrifuged at high speed (100,000×g) for 60 minutes. The translucent final pellet is harvested and combined in a small volume (20-50.0 ml) of 50.0 mM Tris.HCl buffer, pH 7.2. A 100 ul aliquot is withdrawn and the protein content of the preparation is determined by the Lowry's method (Lowry, O. H., Rosebrough, N. F., Farr, A. L. and Randall, R. J., Protein measurement with Folin phenol reagent. J. Biol. Chem., […], 265-275, 1951). The pelleted membrane is reconstituted in 50.0 mM Tris.HCl buffer containing 0.1 mM of phenylmethylsulfonyl fluoride (PMSF) to give approximately a protein concentration of 2.5 mg per ml of tissue suspension. The membrane preparation is finally aliquoted in 1.0 ml volumes and stored at -70° C. until use in the binding assays.
Binding of[^125 I](Sar^1,Ile^8)AngII
The binding of [^125 I](Sar^1 Ile^8)AngII to microsomal membranes is initiated by the addition of reconstituted membranes (1:10 vols.) in freshly made 50.0 mMTris.HCl buffer, pH 7.4 containing 0.25% heat inactivated bovine serum albumin (BSA): 80 ul membrane protein (10 to 20 ug/assay) to wells already containing 100 ul of incubatin buffer (as described above) and 20 ul [^125 I](Sar^1,Ile^8)AngII (Specific Activity 2200 Ci/mmole). Non-specific binding is measured in the presence of 1.0 uM unlabeled (Sar^1,Ile^8)AngII, added in 20 ul volume. Specific binding for [^125 I](Sar^1, Ile^8)AngII is greater than 90% In competition studies, experimental compounds are diluted in dimethylsulfoxide (DMSO) and added in 20 ul to wells before the introduction of tissue membranes. This concentration of DMSO is found to have no negative effects on the binding of [^125 I](Sar^1, Ile^8)AngII to the membranes. Assays are performed in triplicate. The wells are left undisturbed for 60 minutes at room temperature. Following incubation, all wells are harvested at once with a Brandel® Harvester especially designed for a 96 well plate (Brandel®Biomedical Research & Development Labs. Inc., Gaithersburg, Md., U.S.A.). The filter discs are washed with 10×1.0 ml of cold 0.9% NaCl to remove unbound ligand. […] This method is routinely used. The filters are removed from the filter grid and counted in a Parkard® Cobra Gamma Counter for 1 minute. (Packard Instrument Co., Downers Grove, Ill., U.S.A.). The binding data are analyzed by the non-linear interactive "LUNDON-1" program (LUNDON SOFTWARE Inc., Cleveland, Ohio U.S.A.). […]

IC50 [nM]	Structure (SMILES)
4000	CCCCc1nc2c(Br)cnn2c(=O)n1Cc1ccc(-c2ccccc2-c2nn[nH]n2)cc1 [Example 20]
1200	CCCCc1nc2ccnn2c(=O)n1Cc1ccc(-c2ccccc2-c2nn[nH]n2)cc1 [Example 17, 2-Butyl-3-[[2'-(1H-tetrazol-5-yl)[1,1'-biphenyl]-4-yl]methyl]pyrazolo[1,5-a]-1,3,5-triazin-4(3H) -one]
670	CCCCc1nc2cc(-c3ccco3)nn2c(=O)n1Cc1ccc(-c2ccccc2-c2nnn[nH]2)cc1 [Example 11, 2-Butyl-7-(2-furanyl)-3-[[2'-(1H-tetrazol-5-yl)[1,1'-biphenyl]-4-yl]methyl]pyrazolo[1,5-a]-1,3,5-triazin-4(3H)-one]
3000	CCCCc1nc2ccnn2c(=O)n1Cc1ccc(-c2ccccc2-c2nn[nH]n2)cc1 [Example 21, 2-Butyl-3-[[2'-(1H-tetrazol-5-yl)-[[1,1'-biphenyl]-4-yl]methyl]-pyrazolo[1,5-a]-1,3,5-triazin-4(3H)-one potassium salt]
63	CCCCc1nc2cc(-c3ccc(F)cc3)nn2c(=O)n1Cc1ccc(-c2ccccc2-c2nnn[nH]2)cc1 [Example 12, 2-Butyl-7-(4-fluorophenyl)-3-[[2'-(1H-tetrazol-5-yl)[1,1'-biphenyl]-4-yl]methyl]pyrazolo[1,5-a]-1,3,5-triazin-4(3H)-one]
760	CCCCc1nc2cc(-c3ccccc3)nn2c(=O)n1Cc1ccc(-c2ccccc2-c2nnn[nH]2)cc1 [Example 10, 2-Butyl-7-phenyl-3-[[2'-(1H-tetrazol-5-yl)[1,1'-biphenyl]-4-yl]methyl]pyrazolo[1,5-a]-1,3,5-triazin-4(3H)-one]
